# Key:
# [1] = system: Brassica rapa subsp. chinensis; assay: whole plant or invertebrate; assay type: functional; details: 72 h, read-out: GI
# Description: Phytotoxicity against Brassica rapa subsp. chinensis assessed as growth inhibition of hypocotyl at 100 ppm treated to seeds after 3 days
# [2] = system: Brassica rapa subsp. chinensis; assay: whole plant or invertebrate; assay type: functional; details: 72 h, read-out: GI; remark: listed apart in the source
# Description: Phytotoxicity against Brassica rapa subsp. chinensis assessed as growth inhibition of radicle at 100 ppm treated to seeds after 3 days
# [3] = system: Pythium; assay: microbe, parasite or virus in culture; assay type: functional; details: read-out: GI
# Description: Fungitoxic activity against Pythium sp. assessed as mycelial growth inhibition at 100 ppm after 4 to 5 days by agar dilution method
# [4] = system: Athelia rolfsii; assay: microbe, parasite or virus in culture; assay type: functional; details: Agroathelia rolfsii, read-out: GI
# Description: Fungitoxic activity against Athelia rolfsii assessed as mycelial growth inhibition at 100 ppm after 4 to 5 days by agar dilution method
# [5] = system: Athelia rolfsii; assay: Fungitoxic activity against Athelia rolfsii assessed as mycelial growth inhibition at 10 ppm after 4 to 5 days by agar dilution method; assay type: functional; details: Agroathelia rolfsii; read-out: GI
# [6] = system: Pythium; assay: Fungitoxic activity against Pythium sp. assessed as mycelial growth inhibition at 10 ppm after 4 to 5 days by agar dilution method; details: read-out: GI
structure (smiles),measurement,setting,value
"C=CCc1ccc(OC(=O)/C=C/c2ccc(Cl)cc2Cl)c(OC)c1 [4-ALLYL-2-METHOXYPHENYL 3-(2,4-DICHLOROPHENYL)ACRYLATE]",inhibition of growth at 100 ppm,[1],28%
same,inhibition of growth at 100 ppm,[2],6%
same,inhibition of growth at 100 ppm,[3],67%
same,inhibition of growth at 100 ppm,[4],87%
same,inhibition of growth at 10 ppm,[5],27%
same,inhibition of growth at 10 ppm,[6],23%
"O=C(/C=C/c1ccccc1)NCc1ccc(Cl)cc1Cl [N-(2,4-DICHLOROBENZYL)CINNAMAMIDE]",inhibition of growth at 100 ppm,[1],0%
same,inhibition of growth at 100 ppm,[2],43%
same,inhibition of growth at 100 ppm,[3],41%
same,inhibition of growth at 100 ppm,[4],51%
CCC(C)OC(=O)/C=C/c1ccccc1 (configuration not stated) [SEC-BUTYL CINNAMATE],inhibition of growth at 100 ppm,[1],18%
same,inhibition of growth at 100 ppm,[2],20%
same,inhibition of growth at 100 ppm,[3],69%
same,inhibition of growth at 100 ppm,[4],70%
same,inhibition of growth at 10 ppm,[5],40%
same,inhibition of growth at 10 ppm,[6],21%
CC(C)(C)NC(=O)/C=C/c1ccc(Cl)cc1 [N-TERT-BUTYL-3-(4-CHLOROPHENYL)ACRYLAMIDE],inhibition of growth at 100 ppm,[1],29%
same,inhibition of growth at 100 ppm,[2],55%
same,inhibition of growth at 100 ppm,[3],21%
same,inhibition of growth at 100 ppm,[4],71%
same,inhibition of growth at 10 ppm,[5],60%
CC(C)OC(=O)/C=C/c1ccc(Cl)cc1 [ISOPROPYL 3-(4-CHLOROPHENYL)ACRYLATE],inhibition of growth at 100 ppm,[1],18%
same,inhibition of growth at 100 ppm,[2],0%
same,inhibition of growth at 100 ppm,[3],86%
same,inhibition of growth at 100 ppm,[4],99%
same,inhibition of growth at 10 ppm,[5],34%
same,inhibition of growth at 10 ppm,[6],7%
Cc1ccc(NC(=O)/C=C/c2ccccc2)c(C)c1,inhibition of growth at 100 ppm,[1],0%
same,inhibition of growth at 100 ppm,[2],0%
same,inhibition of growth at 100 ppm,[3],4%
same,inhibition of growth at 100 ppm,[4],5%
CCC(C)NC(=O)/C=C/c1ccc(Cl)cc1 (configuration not stated) [N-SEC-BUTYL-3-(4-CHLOROPHENYL)ACRYLAMIDE],inhibition of growth at 100 ppm,[1],40%
same,inhibition of growth at 100 ppm,[2],61%
same,inhibition of growth at 100 ppm,[3],43%
same,inhibition of growth at 100 ppm,[4],88%
same,inhibition of growth at 10 ppm,[5],44%
same,inhibition of growth at 10 ppm,[6],41%
C=CCc1ccc(OC(=O)/C=C/c2ccc(C(C)C)cc2)c(OC)c1 [4-ALLYL-2-METHOXYPHENYL 3-(4-ISOPROPYLPHENYL)ACRYLATE],inhibition of growth at 100 ppm,[1],40%
same,inhibition of growth at 100 ppm,[2],0%
same,inhibition of growth at 100 ppm,[3],62%
same,inhibition of growth at 100 ppm,[4],86%
same,inhibition of growth at 10 ppm,[5],8%
same,inhibition of growth at 10 ppm,[6],8%
CCOC(=O)/C=C/c1ccccc1 [ETHYL CINNAMATE],inhibition of growth at 100 ppm,[1],26%
same,inhibition of growth at 100 ppm,[2],0%
same,inhibition of growth at 100 ppm,[3],57%
same,inhibition of growth at 100 ppm,[4],63%
same,inhibition of growth at 10 ppm,[5],36%
same,inhibition of growth at 10 ppm,[6],14%
Cc1ccc(C(C)C)c(OC(=O)/C=C/c2ccc(Cl)cc2)c1,inhibition of growth at 100 ppm,[1],36%
same,inhibition of growth at 100 ppm,[2],24%
same,inhibition of growth at 100 ppm,[3],6%
same,inhibition of growth at 100 ppm,[4],39%
CCCCCCCCCCCCNC(=O)/C=C/c1ccccc1 [N-DODECYLCINNAMAMIDE],inhibition of growth at 100 ppm,[1],48%
same,inhibition of growth at 100 ppm,[2],32%
same,inhibition of growth at 100 ppm,[3],21%
same,inhibition of growth at 100 ppm,[4],13%
CCCCOC(=O)/C=C/c1ccccc1 [BUTYL CINNAMATE],inhibition of growth at 100 ppm,[1],5%
same,inhibition of growth at 100 ppm,[2],0%
same,inhibition of growth at 100 ppm,[3],17%
same,inhibition of growth at 100 ppm,[4],42%
"CC(C)(C)NC(=O)/C=C/c1ccc(Cl)cc1Cl [N-TERT-BUTYL-3-(2,4-DICHLOROPHENYL)ACRYLAMIDE]",inhibition of growth at 100 ppm,[1],11%
same,inhibition of growth at 100 ppm,[2],26%
same,inhibition of growth at 100 ppm,[3],22%
same,inhibition of growth at 100 ppm,[4],21%
Cc1ccccc1NC(=O)/C=C/c1ccccc1 [N-O-TOLYLCINNAMAMIDE],inhibition of growth at 100 ppm,[1],9%
same,inhibition of growth at 100 ppm,[2],39%
same,inhibition of growth at 100 ppm,[3],52%
same,inhibition of growth at 100 ppm,[4],49%
same,inhibition of growth at 10 ppm,[6],18%
Cc1cccc(NC(=O)/C=C/c2ccccc2)c1C,inhibition of growth at 100 ppm,[1],32%
same,inhibition of growth at 100 ppm,[2],56%
same,inhibition of growth at 100 ppm,[3],16%
same,inhibition of growth at 100 ppm,[4],12%
CC(C)c1ccc(/C=C/C(=O)NC(C)(C)C)cc1 [N-TERT-BUTYL-3-(4-ISOPROPYLPHENYL)ACRYLAMIDE],inhibition of growth at 100 ppm,[1],7%
same,inhibition of growth at 100 ppm,[2],43%
same,inhibition of growth at 100 ppm,[3],62%
same,inhibition of growth at 100 ppm,[4],31%
same,inhibition of growth at 10 ppm,[6],45%
Cc1cccc(C)c1NC(=O)/C=C/c1ccccc1,inhibition of growth at 100 ppm,[1],0%
same,inhibition of growth at 100 ppm,[2],0%
same,inhibition of growth at 100 ppm,[3],31%
same,inhibition of growth at 100 ppm,[4],13%
Cc1ccc(OC(=O)/C=C/c2ccc(C(C)C)cc2)c(C(C)C)c1,inhibition of growth at 100 ppm,[1],39%
same,inhibition of growth at 100 ppm,[2],28%
same,inhibition of growth at 100 ppm,[3],15%
same,inhibition of growth at 100 ppm,[4],24%
CCCCCCCCCCCCCCCCNC(=O)/C=C/c1ccccc1 [N-HEXADECYLCINNAMAMIDE],inhibition of growth at 100 ppm,[1],20%
same,inhibition of growth at 100 ppm,[2],75%
same,inhibition of growth at 100 ppm,[3],12%
same,inhibition of growth at 100 ppm,[4],0%
CC(C)COC(=O)/C=C/c1ccccc1 [ISOBUTYL CINNAMATE],inhibition of growth at 100 ppm,[1],40%
same,inhibition of growth at 100 ppm,[2],0%
same,inhibition of growth at 100 ppm,[3],57%
same,inhibition of growth at 100 ppm,[4],42%
Cc1ccc(OC(=O)/C=C/c2ccc(Cl)cc2)c(C(C)C)c1,inhibition of growth at 100 ppm,[1],41%
same,inhibition of growth at 100 ppm,[2],18%
same,inhibition of growth at 100 ppm,[3],13%
same,inhibition of growth at 100 ppm,[4],41%
Cc1ccc(C(C)C)c(OC(=O)/C=C/c2ccc(C(C)C)cc2)c1,inhibition of growth at 100 ppm,[1],42%
same,inhibition of growth at 100 ppm,[2],30%
same,inhibition of growth at 100 ppm,[3],2%
same,inhibition of growth at 100 ppm,[4],0%
O=C(/C=C/c1ccccc1)NCc1ccccc1Cl [N-(2-CHLOROBENZYL)CINNAMAMIDE],inhibition of growth at 100 ppm,[1],70%
same,inhibition of growth at 100 ppm,[2],88%
same,inhibition of growth at 100 ppm,[3],23%
same,inhibition of growth at 100 ppm,[4],41%
"CCC(C)NC(=O)/C=C/c1ccc(Cl)cc1Cl (configuration not stated) [N-SEC-BUTYL-3-(2,4-DICHLOROPHENYL)ACRYLAMIDE]",inhibition of growth at 100 ppm,[1],21%
same,inhibition of growth at 100 ppm,[2],41%
same,inhibition of growth at 100 ppm,[3],23%
same,inhibition of growth at 100 ppm,[4],31%
Cc1ccc(OC(=O)/C=C/c2ccc(Cl)cc2Cl)c(C(C)C)c1,inhibition of growth at 100 ppm,[1],32%
same,inhibition of growth at 100 ppm,[2],0%
same,inhibition of growth at 100 ppm,[3],15%
same,inhibition of growth at 100 ppm,[4],67%
same,inhibition of growth at 10 ppm,[5],21%
CCCCCCCCCCNC(=O)/C=C/c1ccccc1,inhibition of growth at 100 ppm,[1],10%
same,inhibition of growth at 100 ppm,[2],15%
same,inhibition of growth at 100 ppm,[3],27%
same,inhibition of growth at 100 ppm,[4],23%
"CCCCNC(=O)/C=C/c1ccc(Cl)cc1Cl [N-BUTYL-3-(2,4-DICHLOROPHENYL)ACRYLAMIDE]",inhibition of growth at 100 ppm,[1],17%
same,inhibition of growth at 100 ppm,[2],49%
same,inhibition of growth at 100 ppm,[3],9%
same,inhibition of growth at 100 ppm,[4],16%
Cc1ccc(C(C)C)c(OC(=O)/C=C/c2ccc(Cl)cc2Cl)c1,inhibition of growth at 100 ppm,[1],33%
same,inhibition of growth at 100 ppm,[2],0%
same,inhibition of growth at 100 ppm,[3],29%
same,inhibition of growth at 100 ppm,[4],33%
O=C(/C=C/c1ccccc1)NCc1ccc(Cl)cc1 [N-(4-CHLOROBENZYL)CINNAMAMIDE],inhibition of growth at 100 ppm,[1],6%
same,inhibition of growth at 100 ppm,[2],44%
same,inhibition of growth at 100 ppm,[3],33%
same,inhibition of growth at 100 ppm,[4],27%
CC(C)=CCC/C(C)=C/COC(=O)/C=C/c1ccc(Cl)cc1Cl,inhibition of growth at 100 ppm,[1],26%
same,inhibition of growth at 100 ppm,[2],1%
same,inhibition of growth at 100 ppm,[3],24%
same,inhibition of growth at 100 ppm,[4],30%
CCc1ccccc1NC(=O)/C=C/c1ccccc1,inhibition of growth at 100 ppm,[1],0%
same,inhibition of growth at 100 ppm,[2],21%
same,inhibition of growth at 100 ppm,[3],26%
same,inhibition of growth at 100 ppm,[4],19%
"CC(C)=CCCC(C)CCOC(=O)/C=C/c1ccc(Cl)cc1Cl (configuration not stated) [3,7-DIMETHYLOCT-6-ENYL 3-(2,4-DICHLOROPHENYL)ACRYLATE]",inhibition of growth at 100 ppm,[1],25%
same,inhibition of growth at 100 ppm,[2],0%
same,inhibition of growth at 100 ppm,[3],0%
same,inhibition of growth at 100 ppm,[4],15%
Cc1ccc(NC(=O)/C=C/c2ccccc2)cc1 [N-P-TOLYLCINNAMAMIDE],inhibition of growth at 100 ppm,[1],24%
same,inhibition of growth at 100 ppm,[2],57%
same,inhibition of growth at 100 ppm,[3],59%
same,inhibition of growth at 100 ppm,[4],47%
same,inhibition of growth at 10 ppm,[6],35%
CC(C)OP(=O)(OC(C)C)SCc1ccccc1 [IPROBENFOS],inhibition of growth at 100 ppm,[3],89%
same,inhibition of growth at 100 ppm,[4],100%
same,inhibition of growth at 10 ppm,[5],69%
same,inhibition of growth at 10 ppm,[6],42%
"CC(C)CNC(=O)/C=C/c1ccc(Cl)cc1Cl [3-(2,4-DICHLOROPHENYL)-N-ISOBUTYLACRYLAMIDE]",inhibition of growth at 100 ppm,[1],7%
same,inhibition of growth at 100 ppm,[2],43%
same,inhibition of growth at 100 ppm,[3],31%
same,inhibition of growth at 100 ppm,[4],38%
CCCOC/C(=N\c1ccc(Cl)cc1C(F)(F)F)n1ccnc1 [TRIFLUMIZOLE],inhibition of growth at 100 ppm,[3],94%
same,inhibition of growth at 100 ppm,[4],100%
same,inhibition of growth at 10 ppm,[5],64%
same,inhibition of growth at 10 ppm,[6],71%
"CCCNC(=O)/C=C/c1ccc(Cl)cc1Cl [3-(2,4-DICHLOROPHENYL)-N-PROPYLACRYLAMIDE]",inhibition of growth at 100 ppm,[1],18%
same,inhibition of growth at 100 ppm,[2],26%
same,inhibition of growth at 100 ppm,[3],29%
same,inhibition of growth at 100 ppm,[4],43%
"CC(C)NC(=O)/C=C/c1ccc(Cl)cc1Cl [3-(2,4-DICHLOROPHENYL)-N-ISOPROPYLACRYLAMIDE]",inhibition of growth at 100 ppm,[1],11%
same,inhibition of growth at 100 ppm,[2],30%
same,inhibition of growth at 100 ppm,[3],28%
same,inhibition of growth at 100 ppm,[4],31%
CCCCCCCCNC(=O)/C=C/c1ccccc1 [N-OCTYLCINNAMAMIDE],inhibition of growth at 100 ppm,[1],34%
same,inhibition of growth at 100 ppm,[2],42%
same,inhibition of growth at 100 ppm,[3],24%
same,inhibition of growth at 100 ppm,[4],46%
CCc1ccc(NC(=O)/C=C/c2ccccc2)cc1,inhibition of growth at 100 ppm,[1],10%
same,inhibition of growth at 100 ppm,[2],20%
same,inhibition of growth at 100 ppm,[3],34%
same,inhibition of growth at 100 ppm,[4],53%

# — ChEMBL document CHEMBL3046649, “Fungitoxic and Phytotoxic Activities of Cinnamic Acid Esters and Amides” (2000)
